In US20080039410A1, “Inositol 1,4,5-Trisphosphate Receptor Mutants and Uses Thereof” (priority 2004, published 2008):
Where no end group is shown, it is not given here. The star is where a group is joined. Myristoyl = CCCCCCCCCCCCCC(=O)*

How the values were obtained:
[1] = test system: InsP3R-III; assay: PKA stimulation of Ca2+ signals in DT-40 3ko cells transfected with rat InsP3R-III; type: cell-based
[2] = test system: S2+ InsP3R-1; assay: Potentiation of CCh-induced Ca2+ release after PKG activation (8-Br cGMP), S2+ InsP3R-1 constructs in DT-40 3ko cells; type: cell-based, rat; conditions: 30 min pretreatment, cells expressing S2+ InsP3R-1
Experimental: (§1) Transfected DT-40 3ko cells were washed once in a HEPES-buffered physiological saline solution (HEPES-PSS) containing (in mM) 5.5 glucose, 137 NaCl, 0.56 MgCl2, 4.7 KCl, 1 Na2HPO4, 10 HEPES (pH 7.4), 1.2 CaCl2 and 1% w/v Bovine Serum Albumin. Cells were then resuspended in BSA HEPES-PSS with 1 μM Fura-2 (AM), placed on a 15 mm glass coverslip in a low volume perfusion chamber (Warner Instruments) and allowed to adhere for 30 minutes at room temperature. Cells were perfused continually for 10 minutes with HEPES-PSS before experimentation to allow Fura-2 de-esterification. A field of cells for each experiment was chosen that contained a wide range of transfection efficiency based upon the intensity of red fluorescence emitted when excited at 560 nm. [Ca^2+]i imaging was performed essentially as previously described using an inverted epifluorescence Nikon microscope with a 40× oil immersion objective lens (numerical aperture, 1.3). Cells were excited alternately with light at 340 and 380 nm (±10 mn bandpass filters, Chroma) using a monochrometer (TILL Photonics). Fluorescence images were captured and digitized with a digital camera driven by TILL Photonics software. Images were captured every 2 seconds with an exposure of 35 ms and no binning. 340/380 ratio images were calculated online and stored immediately to hard disk.
(§2) The effects of treatment were determined by normalizing the peak change in fluorescence ratio by stimulation following forskolin or 8-Br cGMP exposure to that of stimulation in control HEPES-PSS. Thus, pooled data represents a normalized fold increase over control for the treated trial. Two tailed heteroscedastic t-tests with P values<0.05 were considered to have statistical significance.
Similar experiments were performed to assess the effects on Ca^2+ release of phosphorylating InsP3R-1 with PKG. Cells transfected with S2^+ InsP3R-1 together with M3 receptor and HcRed were stimulated with low, threshold concentrations of CCh (25-50 nM) followed by a 10 min treatment with 10 μM 8-Br cGMP, a specific activator of PKG [48]. […] In a similar fashion to PKA activation, this was manifested as an increase in the CCh-induced initial peak (FIG. 4A and pooled data FIG. 4E).
(§3) The effects of treatment were determined by normalizing the peak change in fluorescence ratio by stimulation following forskolin or 8-Br-cGMP exposure to that of stimulation in control HEPES-PSS. Thus, pooled data represent a normalized fold increase over control for the treated trial. In all cases where statistical significance is indicated, two-tailed heteroscedastic t tests were performed. P values<0.05 were considered to indicate statistical significance and are denoted by an asterisk in the figures.
Despite these differences, experiments were performed to define further the phosphorylation sites important for regulation of Ca^2+ release by PKG. […] In contrast, in cells expressing S2+SE no effect on CCh-induced Ca^2+ release following activation of PKG was observed (FIG. 23C and pooled data in FIG. 23D).

[3] = test system: S2+ InsP3R-1; assay: Potentiation of CCh-induced Ca2+ release after PKA activation (forskolin), S2+ InsP3R-1 constructs in DT-40 3ko cells; type: cell-based, rat; conditions: 30 min pretreatment, cells expressing S2+ InsP3R-1
Experimental: DT-40 cells lacking all three InsP3 receptor subtypes DT-40 3ko were transfected using electroporation, 350 V and 950 μF. 2×10^7 cells were co-transfected with 25 μg of the InsP3R cDNA, 25 μg of the muscarinic type 3 (M3) receptor, and 4 μg of the red fluorescent protein plasmid pHcRed1-N1. Cells were incubated with DNA in 500 μL of Optimem media on ice for 10 minutes. The cell/DNA mixture was electroporated, incubated on ice for 30 minutes, brought up to 5 ml with Optimem and placed in a 5% C02 incubator at 39° C. for 5 hours. The cells were then centrifuged and resuspended in 12 ml of complete RPMI media. Transfection efficiency was typically ˜20%. Experiments were performed within 32 hours of transfection.
as §1, §2
Experiments were performed in DT-40 3ko cells transfected with S2^+ InsP3R-1. Since there are no reports of Gαq coupled receptors expressed in DT-40 cells, initial experiments were performed eliciting [Ca^2+]i changes by stimulating the endogenous B cell receptor with α-IgM antibody. […] Thus, in all further experiments, DT-40 3ko cells were co-transfected with the M3 receptor, and HcRed to facilitate identification of transfected cells (inset FIG. 1). Stimulation of M3 receptors with the muscarinic agonist carbachol (CCh), provided a convenient means of stimulating [Ca^2+]i changes, presumably through Gαq-induced activation of phospholipase C and production of InsP3. […] The potentiation was most marked when threshold elevations in [Ca^2+]i were evoked by the initial exposure to CCh and therefore only cells in which the initial CCh treatment evoked a Δ 340/380 ratio of<0.2 ratio units were included for analysis. […] [Ca^2+]i changes were never evoked by CCh treatment in cells transfected with only M3 cDNA in the absence of InsP3R or likewise InsP3R with no M3 cDNA.
as §3, with “P values<0.05 were considered to indicate statistical significance and are denoted by an asterisk in the figures.” left out

Row | Substance | effect of stimulating PKA on Ca^2+ signals [1] | effect of PKI on 8-Br cGMP-induced enhancement of Ca^2+ release [2] | effect of PKI on 8-Br cGMP-induced enhancement of Ca^2+ release ([2]; listed as myristolyated PKI) | effect of PKI on forskolin-induced enhancement of Ca^2+ release [3] | effect of PKI on forskolin-induced enhancement of Ca^2+ release ([3]; listed as myristolyated PKI)
1 | rat InsP3R-III: rat type 3 InsP3 receptor transfected into DT-40 3ko cells | inhibited | – | – | – | –
2 | PKI: cell-permeable PKA inhibitor, myristolyated PKI (Myristoyl-SGRTGRRNA; UniProt P61925 14-22, looked up, fragment) [reference compound] | – | does not affect | did not alter | completely abolishes | completely abolished
